Data taken from US8846704B2, “Thiopyrimidine-based compounds and uses thereof” (YM Biosciences Austraila Pty Ltd, priority 2007, dated 2014).

molecular target: T1, BaF3 TELJAK3 cells (Homo sapiens, UniProt P52333); assay: Cellular screening, BaF3 TEL:JAK3 cells, Alamar Blue; format: cell-based; conditions: 40 hr, read-out: BafT_J3 IC50_nM
T1 construct: fused on or other part: TEL (ETV6) N-terminal part, coding nucleotides 1-487, serves as the oligomerising partner; It is fused through a Sal I site to the JAK3 kinase domain and expressed from pTRE2 in BaF3 cells bearing pTET-off; P41212 (Transcription factor ETV6)
T1 sequence (P52333 1-1124): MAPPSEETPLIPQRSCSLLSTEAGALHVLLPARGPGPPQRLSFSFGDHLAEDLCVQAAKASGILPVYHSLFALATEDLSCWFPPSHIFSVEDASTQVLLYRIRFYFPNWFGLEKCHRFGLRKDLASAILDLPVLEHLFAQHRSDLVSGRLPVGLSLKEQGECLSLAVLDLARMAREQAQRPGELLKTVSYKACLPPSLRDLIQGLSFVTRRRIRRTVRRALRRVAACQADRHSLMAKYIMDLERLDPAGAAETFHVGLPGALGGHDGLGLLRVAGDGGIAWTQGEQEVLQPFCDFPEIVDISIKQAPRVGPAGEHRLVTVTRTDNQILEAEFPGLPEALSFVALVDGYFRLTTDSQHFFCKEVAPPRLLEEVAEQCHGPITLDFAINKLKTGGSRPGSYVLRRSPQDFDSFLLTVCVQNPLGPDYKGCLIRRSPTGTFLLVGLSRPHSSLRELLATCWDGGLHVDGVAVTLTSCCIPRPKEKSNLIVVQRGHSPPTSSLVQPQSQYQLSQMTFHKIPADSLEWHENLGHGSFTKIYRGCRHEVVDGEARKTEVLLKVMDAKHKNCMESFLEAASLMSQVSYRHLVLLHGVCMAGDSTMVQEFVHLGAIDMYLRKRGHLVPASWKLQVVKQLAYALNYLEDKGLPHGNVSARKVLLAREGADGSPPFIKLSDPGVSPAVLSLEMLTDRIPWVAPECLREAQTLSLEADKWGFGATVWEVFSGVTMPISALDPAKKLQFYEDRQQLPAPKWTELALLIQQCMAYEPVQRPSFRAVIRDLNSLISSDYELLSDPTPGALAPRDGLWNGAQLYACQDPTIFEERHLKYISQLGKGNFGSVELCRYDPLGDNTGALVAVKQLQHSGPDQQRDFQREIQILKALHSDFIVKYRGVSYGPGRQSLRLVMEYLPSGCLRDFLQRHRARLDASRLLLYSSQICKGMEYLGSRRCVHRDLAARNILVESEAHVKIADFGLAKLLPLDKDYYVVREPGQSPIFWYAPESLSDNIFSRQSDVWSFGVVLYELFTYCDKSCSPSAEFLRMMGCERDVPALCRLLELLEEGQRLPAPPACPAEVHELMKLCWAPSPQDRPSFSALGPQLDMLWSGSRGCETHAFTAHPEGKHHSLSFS
Outline: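 Alamar Blue signal at 544 nm, developed for 4–6 h, measured viability after 40 h of compound treatment at 37 °C, 5% CO2. Cells were growth-factor-independent BaF3 lines transfected with a TEL/JAK3 kinase-domain fusion under tet-off control. They were cultured in DMEM, 10% Tet-approved FBS, lacking WEHI 3B conditioned medium.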

Compared with `Cc1cnc(Nc2ccc(N3CCOCC3)cc2)nc1Sc1ccc(NC(=O)/C=C/Cl)cc1` [Compound 343, (E)-3-chloro-N-(4-(5-methyl-2-(4-morpholinophenylao)pyrimidin-4-ylthio)phenyl)acrylamide], `Cc1cnc(Nc2ccc(N3CCOCC3)cc2)nc1Sc1ccc(NC(=O)/C=C/C(=O)O)cc1` [Compound 387, (E)-4-(4-(5-methyl-2-(4-morpholinophenylao)pyrimidin-4-ylthio)phenylao)-4-oxobut-2-enoic acid] is higher in GI50: less than 5 µM for the first, greater than 20 µM for the second.

`C=CC(=O)Nc1ccc(Sc2ccnc(Nc3cccc(S(=O)(=O)N4CCOCC4)c3)n2)cc1` [Compound 372, N-(4-(2-(3-(morpholinosulfonyl)phenylao)pyrimidin-4-ylthio)phenyl)acrylamide] and `C=CC(=O)Nc1ccc(Sc2ccnc(Nc3cccc(S(N)(=O)=O)c3)n2)cc1` [Compound 364, N-(4-(2-(3-sulfamoylphenylao)pyrimidin-4-ylthio)phenyl)acrylamide] cannot be ordered by GI50: less than 5 µM for the first, less than 1 µM for the second.

`C=CC(=O)Nc1ccc(Sc2nc(Nc3ccc4c(c3)OCO4)ncc2C)cc1` [Compound 284, N-(4-(2-(benzo[d][1,3]dioxol-5-ylao)-5-methylpyrimidin-4-ylthio)phenyl)acrylamide] and `C=CC(=O)Nc1ccc(Sc2ccnc(Nc3ccc4c(c3)OCO4)n2)cc1` [Compound 393, N-(4-(2-(benzo[d][1,3]dioxol-5-ylao)pyrimidin-4-ylthio)phenyl)acrylamide] cannot be ordered by GI50: less than 1 µM for the first, less than 1 µM for the second.

`C=CC(=O)Nc1ccc(Sc2nc(Nc3cccc(OC(F)(F)F)c3)ncc2C)cc1` [Compound 289, N-(4-(5-methyl-2-(3-(trifluoromethoxy)phenylao)pyrimidin-4-ylthio)phenyl)acrylamide] and `C=CC(=O)Nc1ccc(Sc2ccnc(Nc3cccc(Cl)c3)n2)cc1` [Compound 348, N-(4-(2-(3-chlorophenylao)pyrimidin-4-ylthio)phenyl)acrylamide] cannot be ordered by GI50: less than 5 µM for the first, less than 5 µM for the second.

`C=CC(=O)Nc1cccc(Sc2ccnc(Nc3ccc(OC)cc3)n2)c1` [Compound 120, N-(3-(2-(4-methoxyphenylao)pyrimidin-4-ylthio)phenyl)acrylamide] and `C=CC(=O)Nc1ccc(Sc2ccnc(Nc3ccc(OC)c(O)c3)n2)cc1` [Compound 97] cannot be ordered by GI50: less than 1 µM for the first, less than 1 µM for the second.

Going from `CC#CC(=O)Nc1ccc(Sc2ccnc(Nc3ccc(N4CCOCC4)cc3)n2)cc1` [Compound 104, N-(4-(2-(4-morpholinophenylao)pyrimidin-4-ylthio)phenyl)but-2-ynamide] to `COc1cc(Sc2ccnc(Nc3ccc(N4CCOCC4)cc3)n2)ccc1N` [Compound 117, 4-(4-ao-3-methoxyphenylthio)-N-(4-morpholinophenyl)pyrimidin-2-ae], the GI50 rises from less than 5 µM to greater than 20 µM.

`Nc1ccc(Sc2nc(Nc3ccc(N4CCOCC4)cc3)ncc2I)cc1` [Compound 309, 4-(4-aophenylthio)-5-iodo-N-(4-morpholinophenyl)pyrimidin-2-ae] and `C=CC(=O)Nc1ccc(Sc2nc(Nc3ccc(N4CCOCC4)cc3)ncc2C)c(Cl)c1C` [Compound 171, N-(3-chloro-2-methyl-4-(5-methyl-2-(4-morpholinophenylao)pyrimidin-4-ylthio)phenyl)acrylamide] cannot be ordered by GI50: less than 5 µM for the first, less than 5 µM for the second.

`C=CC(=O)Nc1ccc(Sc2nc(Nc3ccc(N4CCC(C(=O)OCC)CC4)cc3)ncc2C)cc1` [Compound 292, ethyl 1-(4-(4-(4-acrylamidophenylthio)-5-methylpyrimidin-2-ylao)phenyl)piperidine-4-carboxylate] and `C=CC(=O)Nc1ccc(Sc2ccnc(Nc3ccc(S(=O)(=O)NCCC(C)C)cc3)n2)cc1` [Compound 371, N-(4-(2-(4-(N-isopentylsulfamoyl)phenylao)pyrimidin-4-ylthio)phenyl)acrylamide] cannot be ordered by GI50: less than 5 µM for the first, less than 5 µM for the second.

In the case of `C=CC(=O)Nc1ccc(Sc2ccnc(Nc3ccccc3O)n2)cc1` [Compound 279, N-(4-(2-(2-hydroxyphenylao)pyrimidin-4-ylthio)phenyl)acrylamide], the GI50 is reported as less than 20 µM.
